We go through 1 substance from patent US20240251783A1, “COMPOSITIONS AND METHODS FOR LUNG PRESERVATION” (University Health Network, priority 2021, published 2024).

The test system of assay [1] is human pulmonary microvascular endothelial cells (HPMEC). The assay can be described thus: Cell culture model simulating hypothermic lung preservation and warm reperfusion; MTS cell viability. The format is cell-based. To be noted: 42 h CIT. On the procedure:
(§1) Human lung epithelial (BEAS-2B) cells or human pulmonary microvascular endothelial cells (HPMEC) were cultured to confluence at 37° C., 5% CO2 in DMEM (Gibco; Waltham MA) with 10% of fetal bovine serum (FBS, Gibco), or in M199 medium (Thermo Scientific, Waltham MA) with 20% of FBS, respectively. After cells reached confluence, medium was replaced with different testing solutions, and cells were switched to a chamber at 4° C. with 50% O2 to simulate hypothermic lung preservation. After different periods of cold ischemic time (CIT), cells were switched back to DMEM+10% FBS or M199+20% FBS at 37° C. with 5% CO2 for 4 h to simulate reperfusion. Cell morphology was recorded with phase contrast microscopy.
(§2) CellTiter 96® AQueous One Solution Cell Proliferation Assay (MTS) was used to determine effects of different solutions on cell viabilities. Cells were seeded in 96-well plates at 15,000 cells/100 μl/well, and incubated with serum containing culture medium as described above, at 37° C./5% CO2 overnight. After switching to different preservation solutions for various periods of CIT, and followed by 3 h simulated reperfusion, and then 20 μl of CellTiter 96@ AQueousOne Solution (Promega; Madison, WI) was added to each well. After additional 1 h incubation, optical density of each well was measured using a plate reader (Biotek Instrument Inc., Winooski, VT) set to 490 nm.

Assay [2] concerns Human lung epithelial (BEAS-2B) cells. The assay can be described thus: Cell culture model simulating hypothermic lung preservation and warm reperfusion; MTS cell viability and phase contrast morphology. To be noted: 42 h CIT. The format is cell-based. As to the method: as §1, §2

For the substance dextran 40, the “effect of addition of dextran 40 on cell viability” value is listed as “further significantly improved cell viability” in assay [1] (50 mg/ml added to M199(p)), “not further enhanced” in assay [1] (50 mg/ml added to RPMI-1640(p)), “further significantly improved cell viability” in assay [2] (50 mg/ml added to M199(p)) and “not further enhanced” in assay [2] (50 mg/ml added to RPMI-1640(p)).
